Laboratory results from US20100234231A1, “YIELD ENHANCING AGENT FOR HARVESTING PART OF CROP” (priority 2009, published 2010).

Assays:
Assay type in all cases: in vivo
[1] = system: sunflower (variety: Hybrid Sunflower); assay: Effect of enhancing yield of sunflower seeds (field test, treatment after flowering); conditions: ALA hydrochloride 0.2 g/10a foliage x2, uniconazole P 0.3 g/10a, 7 days after flowering; for Number of filled seeds / Weight of filled seeds: empty seeds excluded
Method: A test field (red soil) was divided into 0.7 m^2 per compartment, and sunflower (variety: Hybrid Sunflower) was planted (6/9). A synthetic fertilizer was applied as a basal fertilizer such that N-P-K=5.0-5.0-5.0 kg/10 a (6/9). Four stocks were planted per test zone, and in the middle of growth, thinning was performed to make the test zone uniform so that there would be two stocks per test zone. Seven days after flowering, a Sumiseven P liquid preparation (containing 0.025% of uniconazole P) as an gibberellin biosynthesis inhibitor was used for treatment such that the amount of treatment of uniconazole P would be 0.3 […]) (8/20). Furthermore, a foliage treatment with 5-aminolevulic acid hydrochloride was performed at 0.2 […]), two times in total at the date of uniconazole P treatment (8/20) and 2 weeks after the uniconazole P treatment (9/3). As additional fertilization, a synthetic fertilizer was applied such that N-P-K=3.0-3.0-3.0 kg/10 a (7/8). After harvesting (9/16), the number and weight of seeds of each plant body were measured. This time, empty seeds without kernels were excluded. The test zone was provided as 6 test zones under each condition.

Turnip (variety: Honami) = assay: Comparative Example: combined treatment during seedling growth, turnip yield (field test); conditions: ALA hydrochloride 0.2 g/10a; prohexadione calcium salt 20 g/10a; 7 days before initiation of enlargement (seedling growth)
Method: Turnip (variety: […] At this time, a synthetic fertilizer was applied as a basal fertilizer such that N-P-K=5-5-5 kg/10 a. Four stocks were planted per test zone, and 4 test zones were set up randomly for one condition so as not to be affected by the place. […] After harvesting (11/12), the weights of the aerial part and the terrestrial part of the plant body were measured.

barley = assay: Effect of enhancing yield of barley grains (pot test, treatment around ear emergence)
Method: A certain amount of kuroboku soil was placed in a 15-L Polybucket (1/17500×10 a), a liquid fertilizer Hyponica was applied as a basal fertilizer such that N-P-K=5.0-2.8-8.5 kg/10 a, and barley was sowed (11/3). Five stocks of seedlings were planted per bucket, and in the middle of growth, thinning was performed to make the test zone uniform so that there would be 3 stocks per bucket. Five days before ear emergence (4/15), prohexadione calcium salt was used as an gibberellin biosynthesis inhibitor to treat at 7.0, 3.5 […]) (4/10). Furthermore, a treatment with 5-aminolevulic acid hydrochloride was performed at 0.15 […]) under the conditions of performing a foliage treatment each time at the respective times of before (4/3), simultaneously with (4/10) and after (5/8) the treatment with prohexadione calcium salt. […] Four buckets were used per test zone.

[2] = system: rice (variety: Koshihikari); assay: Effect of enhancing yield of rice (pot test, treatment after ear emergence); conditions: for Number of ears per stock / Number of rice grains per ear / Weight of thousand grains / Ripening rate: ALA hydrochloride 0.1 g/10 a foliage x3, prohexadione calcium salt 0.4 g/10 a, 3 days after ear emergence; for Ripening rate: number of rice grains having specific gravity of 1.06 or more/number of total rice grains x100, in %; for Yield of rice per stock: product of ears per stock, grains per ear, ripening rate and thousand-grain weight, ALA hydrochloride 0.1 g/10 a, prohexadione calcium salt 0.4 g/10 a
Method: Seeds of rice (variety: Koshihikari) were sterilized with 70% ethanol, and rice seeds heavier than a specific gravity of 1.13 were screened by brine washing. Water absorption for one night at 30° C. and germination for one night were carried out, and then the seeds were sowed in a seedling box (4/11). A certain amount of kuroboku soil was placed in a 15-L Polybucket (1/17500×10 a), a synthetic fertilizer was mixed therein as a basal fertilizer such that N-P-K=5-5-5 kg/10 a, and water was drawn in to a water depth of 3 cm. Grown seedlings were planted at 3 stocks per bucket (5/15). […] Furthermore, 5-aminolevulic acid (ALA) hydrochloride was used for a foliage treatment for three times (8/14, 8/30, 9/10) at 0.1 […]). Four buckets were used for one test zone, and the buckets were placed randomly so as not to be affected by the place.

[3] = system: radish (variety: Red Chime); assay: Effect of enhancing yield of radish hypocotyl (pot test); conditions: ALA hydrochloride 0.1 g/10a foliage 6 days after prohexadione; prohexadione calcium salt 15 g/10a, 10 days after initiation of hypocotyl enlargement
Method: A certain amount of kuroboku soil was placed in a No. 6 pot (1/75000×10 a), and radish (variety: Red Chime) was planted (5/4). A liquid fertilizer Hyponica was applied as a basal fertilizer such that N-P-K=5.0-2.8-8.5 kg/10 a (5/8). Five stocks were planted per pot, and in the middle of growth, thinning was performed to make the test zone uniform so that there would be 3 stocks per pot. Ten days after the initiation of hypocotyl enlargement, prohexadione calcium salt was used as an gibberellin biosynthesis inhibitor to treat at 15 […]) (5/27). Furthermore, a treatment with 5-aminolevulic acid hydrochloride was performed at 0.1 […]) under the conditions of performing a foliage treatment (6/2) six days after the treatment with prohexadione calcium salt. […] Seven pots were used per test zone.

| Structure (SMILES) | Live weight of plant body [1] [kg/stock] | Number of filled seeds [1] [seeds/stock] | Weight of filled seeds [1] [g/stock] | Weight of aerial part (Turnip (variety: Honami)) [kg/stock] | Weight of terrestrial part (Turnip (variety: Honami)) [kg/stock] | Weight of grains per stock (barley; ALA hydrochloride 0.15 g.a.i/10 a at the time 7 days before prohexadione calcium salt treatment (4/3), prohexadione calcium salt none) [g] | Weight of grains per stock (barley; ALA hydrochloride 0.15 g.a.i/10 a at the time 28 days after prohexadione calcium salt treatment (5/8), prohexadione calcium salt none) [g] | Weight of grains per stock (barley; ALA hydrochloride 0.15 g.a.i/10 a at the time simultaneous with prohexadione calcium salt treatment (4/10), prohexadione calcium salt none) [g] | Number of ears per stock [2] | Number of rice grains per ear [2] | Weight of thousand grains [2] [g] | Ripening rate [2] | Yield of rice per stock [2] [g] | Fresh weight of hypocotyl [3] [g] | Weight of grains per stock (barley; ALA hydrochloride none, prohexadione calcium salt 3.5 g.a.i/10 a, 5 days before ear emergence) [g] | Weight of grains per stock (barley; ALA hydrochloride none, prohexadione calcium salt 7 g.a.i/10 a, 5 days before ear emergence) [g] |
| --- | --- | --- | --- | --- | --- | --- | --- | --- | --- | --- | --- | --- | --- | --- | --- | --- |
| CC(C)(C)[C@H](O)/C(=C\c1ccc(Cl)cc1)n1cncn1 [Uniconazole P, (E)-(S)-1-(4-chlorophenyl)-4,4-dimethyl-2-(1H-1,2,4-triazol-1-yl)pent-1-en-3-ol] | 1.96 | 1377 | 126.3 | – | – | – | – | – | – | – | – | – | – | – | – | – |
| Cl.NCC(=O)CCC(=O)O [ALA hydrochloride, 5-aminolevulic acid hydrochloride] | 1.68 | 1348 | 120.5 | 0.368 | 0.725 | 6.59 | 6.45 | 6.83 | 20.2 | 80.12 | 21.9 | 88.71 | 31.4 | 12.2 | – | – |
| CCC(=O)C1=C([O-])CC(C(=O)[O-])CC1=O.[Ca+2] (stereo not drawn) [Prohexadione calcium salt, calcium 3-oxido-5-oxo-4-propionyl-3-cyclohexene carboxylate] | – | – | – | 0.349 | 0.641 | – | – | – | 20.2 | 80.35 | 22.22 | 86.09 | 31.0 | 10.3 | 6.23 | 6.60 |
